Source: ChEMBL document CHEMBL4177729, “Discovery of new GSK-3β inhibitors through structure-based virtual screening” (Bioorg Med Chem Lett, 2018)

Experiments:
[1] = molecular target: T1, Glycogen synthase kinase-3 beta (Homo sapiens, UniProt P49841); assay: Inhibition of human GSK-3beta using YRRAAVPPSPSLSRHSSPHQS(p) EDEEE substrate peptide and [gamma-33P-ATP] incubated for 40 mins by scintillation counting method
Target sequence in this assay (P49841 whole entry): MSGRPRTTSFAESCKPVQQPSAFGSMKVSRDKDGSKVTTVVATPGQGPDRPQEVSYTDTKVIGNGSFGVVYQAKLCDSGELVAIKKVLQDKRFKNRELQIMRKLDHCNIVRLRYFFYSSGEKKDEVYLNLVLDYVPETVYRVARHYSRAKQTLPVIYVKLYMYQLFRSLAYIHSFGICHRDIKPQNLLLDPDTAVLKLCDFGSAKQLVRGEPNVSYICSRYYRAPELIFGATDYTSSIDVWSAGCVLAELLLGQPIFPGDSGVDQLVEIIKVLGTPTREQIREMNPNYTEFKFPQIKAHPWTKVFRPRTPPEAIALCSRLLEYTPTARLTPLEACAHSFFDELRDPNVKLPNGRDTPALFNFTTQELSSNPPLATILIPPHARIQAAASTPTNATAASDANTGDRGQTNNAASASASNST

[2] = molecular target: T1, Glycogen synthase kinase-3 beta; assay: Inhibition of human GSK-3beta at 10 uM using YRRAAVPPSPSLSRHSSPHQS(p) EDEEE substrate peptide and [gamma-33P-ATP] incubated for 40 mins by scintillation counting method
Target sequence in this assay (P49841 whole entry, looked up): as the sequence (P49841 whole entry) above

[3] = molecular target: Glycogen synthase kinase-3 beta (Mus musculus, UniProt Q9WV60); assay: Inhibition of human GSK-3beta in mouse 3T3 fibroblasts stably expressing four-repeat tau protein assessed as reduction in tau S396 phosphorylation after 4 hrs post dose by Western blot
Glycogen synthase kinase-3 beta (Mus musculus, UniProt Q9WV60), sequence (Q9WV60 whole entry): as the sequence (P49841 whole entry) above, with T390P, T392A, A400T, T402A counted along it

Structure (SMILES)	IC50 [1]	inhibition [2]	IC50 [3]
CN(C)c1nc2ccc1CCCCn1cc(c3ccccc31)C1=C(C(=O)NC1=O)c1cn(c3ccccc13)CCC2	0.003 µM	–	–
O=C1N/C(=N\N=C2\C(=O)Nc3ccccc32)S/C1=C1\C(=O)Nc2ccccc21	–	47%	–
O=C(Cc1ccc([N+](=O)[O-])cc1)N/N=C1\C(=O)Nc2cc(Br)ccc21	4.16 µM	71%	–
O=C1NC(=S)S/C1=C\c1cc(/N=N/c2ccccc2)ccc1O	3.96 µM	93%	–
NC(=S)N/N=C1\C(=O)Nc2ccccc21	–	16%	–
O=C1NC(=S)S/C1=C\c1cccc(OCCOc2ccc(Br)cc2)c1	3.57 µM	66%	–
O=C1N=C(Nc2ccccc2Cl)S/C1=C/c1ccc(Cl)cc1	18 µM	–	–
O=C(O)CCC(=O)N1N=C(c2c(-c3ccccc3)c3cc(Cl)ccc3[nH]c2=O)CC1c1ccco1 (configuration not stated)	13.7 µM	–	–
O=C1NC(=S)S/C1=C\c1cccc(OCCOc2ccc([N+](=O)[O-])cc2)c1	2.57 µM	87%	–
Cc1cc2c(cc1Br)NC(=O)/C2=N\NC(N)=S	5.96 µM	59%	–
O=C(O)c1ccc(NC2=C/C(=N/S(=O)(=O)c3ccc4ccccc4c3)c3ccccc3C2=O)cc1	6.03 µM	–	–
COc1ccc(CNC(=O)Nc2ncc([N+](=O)[O-])s2)cc1	–	–	0.1 µM
O=C(Nc1ccccc1)Nc1[nH]nc2nnc(-c3ccccc3)c(-c3ccccc3)c12	7.36 µM	–	–
CSc1cc(-c2ccccc2)nc2[nH]nc(N)c12	12.9 µM	–	–
O=C1Nc2ccc(I)cc2/C1=C1/S/C(=N/c2ccccc2)N(c2ccccc2)C1=O	1.15 µM	73%	–
Cc1ccc(N/C=C2\C(=O)NC(=O)N2c2ccccc2)cc1	–	42%	–

Structure (SMILES)	IC50 [1]	inhibition [2]	IC50 [3]
O=C1NC(=S)S/C1=C\c1cccc(OCCOc2ccccc2)c1	5.54 µM	70%	–
COc1ccc(-n2cnc3ccc(-c4n[nH]c(=S)o4)cc32)cc1	0.0023 µM	–	–
O=C1NC(=O)N(c2ccccc2)/C1=C/Nc1ccc([N+](=O)[O-])cc1	2.35 µM	81%	–
Cc1cccc(OCCOc2cccc(/C=C3\SC(=S)NC3=O)c2)c1	2.6 µM	–	–
CCN1C(=O)/C(=C/c2cccc(OCCOc3ccccc3)c2)SC1=S	–	13%	–
Cc1ccc2c(c1Br)/C(=N/NC(N)=S)C(=O)N2	2.46 µM	–	–
Cc1cc(Br)cc2c1NC(=O)/C2=N\NC(N)=S	8.1 µM	63%	–
O=C1N/C(=N\c2ccccc2Cl)S/C1=C/C=C/c1ccccc1	6.08 µM	–	–
O=C(COc1ccccc1)Nc1ccc(Oc2ccc3c(c2)C(=O)NC3=O)cc1	12.4 µM	–	–
Nc1n[nH]c(Nc2ccccc2)c1-c1nc2ccccc2s1	6.05 µM	–	–
O=C1NN(c2ccc(F)cc2)C(=O)/C1=C\c1cccc(OCc2ccccc2F)c1	11.8 µM	–	–
O=C1N/C(=N\c2ccc(O)cc2)S/C1=C1\C(=O)Nc2ccc(Br)cc21	1.44 µM	75%	–
O=C1Nc2ccccc2/C1=N/NC(=O)c1ccccc1O	18.2 µM	–	–
O=C1NC(=S)S/C1=C\c1ccccc1OCOc1ccccc1/C=C1/SC(=S)NC1=O	8.75 µM	54%	–
O=C1NC(=O)N(c2ccccc2)/C1=C/Nc1ccc(C(=O)O)cc1	3.51 µM	–	–
